The target in series [1] is T1, D(1A) dopamine receptor (Homo sapiens, UniProt P21728). Nature of the series: Binding affinity to dopamine D1 receptor.
The subject of series [2] is Liver microsomes. Nature of the series: Drug metabolism in rat liver microsomes assessed as O-methylated compound derivative. Type of series: ADME, Microsome. (Microsomes from liver hold many membrane-bound enzymes, among them those of drug oxidation.)
For series [3], the target named is T2, Sodium-dependent dopamine transporter (Homo sapiens, UniProt Q01959). The series is described as follows: Binding affinity to DAT at 10 uM by CEREP assay.
For series [4], the system named is CHO. The series is described as follows: Selectivity ratio for rat mGluR6 to human mGluR2 expressed in CHO cell membranes. Type of series: cell-based.
The subject of series [5] is CHO. Nature of the series: Selectivity ratio for human mGluR4 to human mGluR2 expressed in CHO cell membranes. Type of series: cell-based.
Series [6] is described as follows: Fraction unbound in human plasma. Type of series: ADME, cell-free.
The nature of series [7]: Cmax in Wistar rat brain at 0.63 mg/kg, iv after 5 mins. The class given is ADME, organism-based. More on the design: dose 0.63 mg/kg, route intravenous.
Series [8] concerns the target T2, Sodium-dependent dopamine transporter. Nature of the series: Binding affinity to DAT.
In series [9] the target is T3, Metabotropic glutamate receptor 2 (Homo sapiens, UniProt Q14416). The series is described as follows: Displacement of [3H]JNJ-40068782 from human mGLuR2 expressed in CHO cell membrane after 60 mins by liquid scintillation counting. Type of series: cell membranes. In general terms: In a radioligand displacement assay an active substance lowers the binding of a labelled ligand.
Target sequence in this assay (Q14416 whole entry): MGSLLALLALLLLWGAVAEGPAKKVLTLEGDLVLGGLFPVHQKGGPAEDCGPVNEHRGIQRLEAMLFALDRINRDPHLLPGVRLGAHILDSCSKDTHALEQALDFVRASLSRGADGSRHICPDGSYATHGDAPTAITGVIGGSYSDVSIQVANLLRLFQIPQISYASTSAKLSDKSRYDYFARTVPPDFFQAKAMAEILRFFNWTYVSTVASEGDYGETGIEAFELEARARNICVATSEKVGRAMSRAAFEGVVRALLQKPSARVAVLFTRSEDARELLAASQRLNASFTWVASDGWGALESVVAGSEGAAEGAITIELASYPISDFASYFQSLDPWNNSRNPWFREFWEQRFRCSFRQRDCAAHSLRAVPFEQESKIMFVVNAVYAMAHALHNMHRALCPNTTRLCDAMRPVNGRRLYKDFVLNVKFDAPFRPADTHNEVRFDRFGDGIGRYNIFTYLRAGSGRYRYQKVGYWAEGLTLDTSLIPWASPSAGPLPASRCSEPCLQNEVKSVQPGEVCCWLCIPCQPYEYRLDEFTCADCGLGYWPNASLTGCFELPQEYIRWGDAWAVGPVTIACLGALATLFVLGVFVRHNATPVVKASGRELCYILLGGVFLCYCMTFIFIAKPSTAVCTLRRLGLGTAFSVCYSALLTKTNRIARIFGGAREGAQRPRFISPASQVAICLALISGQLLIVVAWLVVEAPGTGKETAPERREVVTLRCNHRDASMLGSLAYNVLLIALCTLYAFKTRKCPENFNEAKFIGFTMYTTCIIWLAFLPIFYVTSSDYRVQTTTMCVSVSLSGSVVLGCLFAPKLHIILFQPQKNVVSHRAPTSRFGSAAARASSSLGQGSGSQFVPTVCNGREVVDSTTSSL

Series [10] concerns HEK293. Nature of the series: Selectivity ratio for human mGluR1 expressed in HEK293 cells to human mGluR2 expressed in CHO cell membranes. The class given is cell-based.
In series [11] the test system is HEK293. Nature of the series: Selectivity ratio for human mGluR3 expressed in HEK293 cells to human mGluR2 expressed in CHO cell membranes. Type of series: cell-based.
Series [12] concerns the target T3, Metabotropic glutamate receptor 2. The series is described as follows: Agonist activity at human mGLuR2 expressed in CHO cell membrane assessed as […] after 30 mins by scintillation counting. Type of series: functional, cell membranes. To be noted: read-out: EC50.
Target sequence in this assay (Q14416 whole entry): as above
In series [13] the test system is Liver microsomes. Nature of the series: Drug metabolism in rat liver microsomes assessed as M+O oxidative metabolite. Type of series: ADME, Microsome.
For series [14], the system named is Liver microsomes. The series is described as follows: Drug metabolism in human liver microsomes assessed as O-methylated compound derivative. Type of series: ADME, Microsome.
Series [15] concerns the target T3, Metabotropic glutamate receptor 2. Nature of the series: Agonist activity at human mGLuR2 expressed in CHO cell membrane assessed as […] after 30 mins by scintillation counting relative to control. Type of series: functional, cell membranes.
Target sequence in this assay (Q14416 19-872 limits assumed): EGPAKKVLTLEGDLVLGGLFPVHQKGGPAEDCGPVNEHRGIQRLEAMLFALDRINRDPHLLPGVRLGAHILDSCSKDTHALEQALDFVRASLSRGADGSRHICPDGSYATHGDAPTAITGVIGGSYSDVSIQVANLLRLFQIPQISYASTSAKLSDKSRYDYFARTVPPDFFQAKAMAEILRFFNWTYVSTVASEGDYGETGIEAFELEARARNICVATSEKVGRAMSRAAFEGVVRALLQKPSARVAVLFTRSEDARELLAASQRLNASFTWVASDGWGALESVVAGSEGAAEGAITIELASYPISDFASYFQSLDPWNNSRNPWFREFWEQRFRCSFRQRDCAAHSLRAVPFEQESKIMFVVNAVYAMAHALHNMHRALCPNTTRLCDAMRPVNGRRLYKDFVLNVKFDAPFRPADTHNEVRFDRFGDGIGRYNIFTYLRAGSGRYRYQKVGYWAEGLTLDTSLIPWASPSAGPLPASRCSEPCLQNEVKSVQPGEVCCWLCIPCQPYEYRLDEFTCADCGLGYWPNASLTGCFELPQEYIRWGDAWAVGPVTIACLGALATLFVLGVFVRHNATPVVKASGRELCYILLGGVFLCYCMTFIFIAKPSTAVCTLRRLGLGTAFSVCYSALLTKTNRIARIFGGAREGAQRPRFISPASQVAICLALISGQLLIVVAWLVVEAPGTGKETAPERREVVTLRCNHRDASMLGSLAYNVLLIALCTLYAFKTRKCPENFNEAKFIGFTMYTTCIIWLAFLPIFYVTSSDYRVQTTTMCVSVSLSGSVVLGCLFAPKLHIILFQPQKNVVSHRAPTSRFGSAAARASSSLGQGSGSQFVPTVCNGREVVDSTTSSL
Series [16] can be described thus: Drug level in Wistar rat brain at 0.63 mg/kg, iv after 1 hr. Type of series: ADME, organism-based. More on the design: dose 0.63 mg/kg, route intravenous. To be noted: read-out: Drug uptake.
Series [17] is described as follows: Fraction unbound in rat plasma. Type of series: ADME, cell-free.
The nature of series [18]: Ratio of drug level in brain to plasma of Wistar rat brain at 0.63 mg/kg, iv. Type of series: ADME, organism-based. Details: dose 0.63 mg/kg, route intravenous; call rule not given here. To be noted: read-out: BPR.
The test system of series [19] is HEK293. Nature of the series: Selectivity ratio for human mGluR7 expressed in HEK293 cells to human mGluR2 expressed in CHO cell membranes. Type of series: cell-based.
Series [20] concerns the target T1, D(1A) dopamine receptor. The series is described as follows: Binding affinity to dopamine D1 receptor at 10 uM by CEREP assay.
Series [21] concerns HEK293. The series is described as follows: Selectivity ratio for human mGluR5 expressed in HEK293 cells to human mGluR2 expressed in CHO cell membranes. The class given is cell-based.
In series [22] the test system is HEK293. Nature of the series: Selectivity ratio for human mGluR8 expressed in HEK293 cells to human mGluR2 expressed in CHO cell membranes. Type of series: cell-based.
For series [23], the system named is Liver microsomes. Nature of the series: Drug metabolism in human liver microsomes assessed as M+O oxidative metabolite. The class given is ADME, Microsome.
In series [24] the test system is Brain. Nature of the series: Biodistribution in Wistar rat brain at 22 Mbq, iv measured at 2 mins post administration by gamma counting. Particulars: in vivo. The class given is ADME, organism-based.
The subject of series [25] is Cerebrum. Nature of the series: Ratio of SUV in cerebrum in iv dosed Wistar at 2 mins post administration by gamma counting to SUV in cerebrum in iv dosed Wistar at 30 mins post administration by gamma counting. To be noted: rat, in vivo. The class given is ADME, organism-based.
Series [26] can be described thus: Metabolic stability in Wistar rat plasma assessed as intact tracer at 74 MBq, iv measured at 30 mins post administration by gamma counting. The class given is ADME, organism-based. Particulars: read-out: Stability.
Series [27] concerns Liver. The series is described as follows: Biodistribution in Wistar rat liver at 22 Mbq, iv measured at 60 mins post administration by gamma counting. Particulars: in vivo, 1 h. Type of series: ADME, organism-based.
The test system of series [28] is Intestine. The series is described as follows: Biodistribution in Wistar rat intestine at 22 Mbq, iv measured at 60 mins post administration by gamma counting. Type of series: ADME, organism-based. To be noted: in vivo, 1 h.
The subject of series [29] is Cerebrum. Nature of the series: Biodistribution in Wistar rat cerebrum at 22 Mbq, iv measured at 2 mins post administration by gamma counting. Type of series: ADME, organism-based. To be noted: in vivo.
The test system of series [30] is Cortex. Nature of the series: Ratio of SUV in cortex in iv dosed Wistar at 2 mins post administration by gamma counting to SUV in cortex in iv dosed Wistar at 30 mins post administration by gamma counting. Type of series: ADME, organism-based. To be noted: rat, in vivo.
Series [31] in a line: Metabolic stability in Wistar rat cerebellum assessed as intact tracer at 74 MBq, iv measured at 30 mins post administration by gamma counting. The class given is ADME, organism-based. Particulars: read-out: Stability.
For series [32], the system named is Hippocampus. The series is described as follows: Ratio of SUV in hippocampus in iv dosed Wistar at 2 mins post administration by gamma counting to SUV in hippocampus in iv dosed Wistar at 30 mins post administration by gamma counting. Particulars: rat, in vivo. The class given is ADME, organism-based.
In series [33] the test system is Cerebellum. The series is described as follows: Ratio of SUV in cerebellum in iv dosed Wistar at 2 mins post administration by gamma counting to SUV in cerebellum in iv dosed Wistar at 30 mins post administration by gamma counting. Type of series: ADME, organism-based. To be noted: rat, in vivo.
Series [34] relates to Cerebellum. Nature of the series: Biodistribution in Wistar rat cerebellum at 22 Mbq, iv measured at 2 mins post administration by gamma counting. Type of series: ADME, organism-based. Particulars: in vivo.
In series [35] the test system is Striatum. The series is described as follows: Ratio of SUV in striatum in iv dosed Wistar at 2 mins post administration by gamma counting to SUV in striatum in iv dosed Wistar at 30 mins post administration by gamma counting. The class given is ADME, organism-based. To be noted: rat, in vivo.
Series [36] relates to Rattus norvegicus. The series is described as follows: Biodistribution in Wistar rat urinary system at 22 Mbq, iv measured at 60 mins post administration by gamma counting. The class given is ADME, organism-based, Urine. To be noted: in vivo, 1 h.
Series [37] is described as follows: Metabolic stability in Wistar rat cerebrum assessed as intact tracer at 74 MBq, iv measured at 30 mins post administration by gamma counting. Particulars: read-out: Stability. The class given is ADME, organism-based.
Series [38] relates to Brain. The series is described as follows: Ratio of SUV in total brain in iv dosed Wistar at 2 mins post administration by gamma counting to SUV in total brain in iv dosed Wistar at 30 mins post administration by gamma counting. The class given is ADME, organism-based. To be noted: rat, in vivo.

As usually defined, the Ki is a measure of affinity in units of concentration, obtained from inhibition or displacement. By fraction unbound is commonly meant the share of the substance not bound to proteins or other matrix. A higher fraction unbound goes with weak binding. By Cmax is commonly meant the peak of the concentration-time curve. One may read the IC50 as the concentration at which inhibition is half-maximal. As a reminder, the EC50 is the midpoint of the concentration-response curve. What is called Emax is the size of the effect at its maximum, as opposed to the concentration needed.

T1 sequence (P21728 whole entry): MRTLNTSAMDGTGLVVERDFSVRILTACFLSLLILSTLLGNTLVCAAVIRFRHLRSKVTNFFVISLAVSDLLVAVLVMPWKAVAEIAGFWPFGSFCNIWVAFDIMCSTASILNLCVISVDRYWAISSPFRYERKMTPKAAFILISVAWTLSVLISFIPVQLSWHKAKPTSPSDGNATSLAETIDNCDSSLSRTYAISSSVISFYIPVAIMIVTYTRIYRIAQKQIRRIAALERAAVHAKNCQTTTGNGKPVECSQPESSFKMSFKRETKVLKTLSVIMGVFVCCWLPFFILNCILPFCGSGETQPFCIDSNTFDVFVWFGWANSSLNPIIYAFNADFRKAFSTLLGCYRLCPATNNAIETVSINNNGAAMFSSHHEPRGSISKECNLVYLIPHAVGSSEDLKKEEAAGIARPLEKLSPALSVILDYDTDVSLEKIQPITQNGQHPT
T2 sequence (Q01959 whole entry): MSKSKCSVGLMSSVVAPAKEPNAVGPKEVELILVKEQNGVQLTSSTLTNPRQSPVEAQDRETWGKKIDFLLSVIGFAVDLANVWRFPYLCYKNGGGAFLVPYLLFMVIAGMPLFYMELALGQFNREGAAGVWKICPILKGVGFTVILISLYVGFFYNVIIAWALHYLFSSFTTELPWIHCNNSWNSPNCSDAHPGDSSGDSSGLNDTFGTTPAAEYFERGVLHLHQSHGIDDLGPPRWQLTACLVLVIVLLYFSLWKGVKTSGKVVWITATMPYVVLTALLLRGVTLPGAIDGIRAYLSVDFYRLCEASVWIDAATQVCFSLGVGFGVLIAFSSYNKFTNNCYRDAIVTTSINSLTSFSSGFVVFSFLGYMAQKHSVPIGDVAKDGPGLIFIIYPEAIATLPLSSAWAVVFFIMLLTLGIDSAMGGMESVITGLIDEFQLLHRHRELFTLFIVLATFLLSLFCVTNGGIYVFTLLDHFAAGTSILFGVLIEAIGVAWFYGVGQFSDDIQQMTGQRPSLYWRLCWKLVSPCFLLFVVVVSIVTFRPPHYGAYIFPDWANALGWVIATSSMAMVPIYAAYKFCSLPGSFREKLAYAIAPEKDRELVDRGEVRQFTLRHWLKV

Turning to `COc1ccc(F)cc1C1CCN(c2ccn3c(CC4CC4)nnc3c2Cl)CC1`, the Ki in series [1] is at least 6200 nM; in series [8] it was 5010 nM. Further, the Drug metabolism entry in [2], in [13], in [14] and in series [23] was “Active” each time. For the same molecule, the Activity in series [3] stood at 83%; in [20], 71%. Further, the Selectivity ratio in [4] is over 350; in series [5], over 350; in series [10], over 350; in series [11] it was 40; in series [19] it was over 350; in series [21], over 350. Moreover, the Selectivity ratio in series [22] was over 350. In addition, the fraction unbound in series [6] and in series [17] was under 0.01 throughout. Besides, the peak level in [7] (Cmax) was 316 ng/g. The same molecule showed a half-maximal inhibitory concentration (IC50) in [9] of 11.2 nM. Also, the half-maximal effective concentration (EC50) in series [12] is 8.2 nM. Further, in series [15], the maximal effect (Emax) stood at 283%. For the same molecule, the concentration at 1 h in [16] is 50 ng/g. The Kp in [18] stood at 1.1.

For `[11CH3]Oc1ccc(F)c(F)c1C1CCN(c2ccn3c(CC4CC4)nnc3c2Cl)CC1`, the Drug uptake in series [24] is 0.64 %ID; in series [27], “Active”; in [28], “Active”; in series [29], 0.46 %ID; in series [34], 0.15 %ID; in series [36] it was “Active”. Besides, the Ratio in [25] is given as 0.84; in series [30], 0.84; in series [32], 1.19; in [33], 0.95; in series [35] it was 0.99; in [38], 0.93. For the same molecule, the remaining at 0.5 h in [26] came to 45.5%; in [31], 96.4%; in series [37] it was 93.1%.

As for `COc1c(F)ccc(F)c1C1CCN(c2ccn3c(CC4CC4)nnc3c2Cl)CC1`, the figures for the inhibition constant Ki in series [1] and in series [8] were at least 6200 nM and over 8500 nM, respectively. Further, the Drug metabolism result in series [2], in [13], in series [14] and in [23] was “Active” in each case. Moreover, the Activity in series [3] turned out to be 52%; in series [20], 76%. The Selectivity ratio in series [4], in series [5], in series [10], in [11], in [19] and in [21] was over 350 throughout. For the same molecule, the Selectivity ratio in series [22] was over 350. The unbound share (fraction unbound) in series [6] and in series [17] was under 0.01 in each case. The molecule also displayed a half-inhibitory concentration (IC50) in series [9] of 9.23 nM. Moreover, the concentration for a half-maximal effect (EC50) in [12] was found to be 7.5 nM. In addition, in series [15], the Emax was found to be 282%.

Consider `[11CH3]Oc1ccc(F)cc1C1CCN(c2ccn3c(CC4CC4)nnc3c2Cl)CC1`, for which the Drug uptake in [24] is 0.58 %ID; in series [27], “Active”; in series [28], “Active”; in series [29] it was 0.45 %ID; in series [34] it was 0.1 %ID; in series [36], “Active”. Also, the Ratio in [25] is on record as 0.83; in [30], 0.88; in series [32], 0.66; in series [33], 0.63; in series [35] it was 0.63; in [38] it was 0.79. Also, the remaining at 0.5 h in [26] was found to be 41%; in series [31], 92.7%; in series [37] it was 92.4%.

Source of the values: ChEMBL document CHEMBL2202996, “Synthesis, evaluation, and radiolabeling of new potent positive allosteric modulators of the metabotropic glutamate receptor 2 as potential tracers for positron emission tomography imaging” (J Med Chem, 2012).
